The values below come from US9809602B2, “Compounds for treating viral infections” (INSTITUT PASTEUR KOREA, priority 2014, dated 2017).

Each structure is given as a SMILES string.

The test system of one experiment is genotype 1/2 chimeric cell culture derived HCV (HCVcc). Nature of the experiment: Genotype 1/2 chimeric HCVcc assay (nano-luciferase, HCV replication). Type of experiment: cell-based. Conditions: Hepatitis C virus. The method in brief:
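Huh-7.5 cells (2400/well) pretreated 2 h with serially diluted compound, then infected with nano-luciferase genotype 1a/2a (JFH-1) chimeric HCVcc. At 72 h post infection, nano-luciferase reported replication and cellular ATP reported cytotoxicity; EC50 and CC50 by non-linear regression.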
Turning to `O=C(NCCCN1CCC(N2CCCCC2)CC1)c1ccc(-c2ccccc2)cc1` [Compound 1005], the EC50 (usually the concentration at which the effect is half-maximal) is 100 to 1000 nM.

The molecule `O=C(NCCCN1CCC(N2CCCCC2)CC1)c1ccc(-c2cccc(Cl)c2)cc1` [Compound 1141] displayed an EC50 of 100 to 1000 nM. Still for that read-out and setting: then `O=C(NCCCN1CCC(N2CCCCC2)CC1)c1ccc(-c2ccc(F)cc2C(F)(F)F)cc1` [Compound 1133], with 100 to 1000 nM; and `CN(C)C(=O)c1ccc(-c2ccc(C(=O)NCCCN3CCC(N4CCCCC4)CC3)cc2)cc1` [Compound 1120], with > 10000 nM; and `O=C(NCCCN1CCC(N2CCOCC2)CC1)c1ccc(Oc2ccccc2)cc1` [Compound 1050], with 1000 to 10000 nM.

Regarding `O=C(NCCC(=O)N1CCC(N2CCCCC2)CC1)c1ccc(Oc2ccccc2)cc1` [Compound 1053], the EC50 lay within 1000 to 10000 nM. On to `O=C(CCCN1CCC(N2CCCCC2)CC1)Nc1ccc(Oc2ccccc2)cc1` [Compound 1052], for which the EC50 is 100 to 1000 nM.

`O=C(NCCCN1CCC(N2CCCCC2)CC1)c1ccc(-c2ccc(C(F)(F)F)cc2)o1` [Compound 1083] gave an EC50 of 100 to 1000 nM. On the same count and under the same terms, then `O=C(NCCCCCN1CCC(N2CCCCC2)CC1)c1ccc(Oc2ccccc2)cc1` [Compound 1087], with 100 to 1000 nM; and `O=S(=O)(NCCCN1CCC(N2CCCCC2)CC1)c1ccc(-c2ccc(C(F)(F)F)cc2)cc1` [Compound 1093], with 100 to 1000 nM; and `Cc1ccc(-c2ccc(S(=O)(=O)NCCCN3CCC(N4CCCCC4)CC3)cc2)cc1` [Compound 1098], with 100 to 1000 nM. On the same count and under the same terms, then `O=C(NCCCN1CCC(N2CCCCC2)CC1)c1ccc(-c2ccc(CN3CCOCC3)cc2)cc1` [Compound 1138], with 1000 to 10000 nM. The same measure, in the same setting: then `O=C(NCCCN1CCC(N2CCCCC2)CC1)c1ccc(Oc2ccccc2F)cc1` [Compound 1061], with 1000 to 10000 nM; and `NS(=O)(=O)c1ccc(-c2ccc(C(=O)NCCCN3CCC(N4CCCCC4)CC3)cc2)cc1` [Compound 1128], with > 10000 nM.

The experiment is the same for the next values; noted with them: Hepatitis C virus, Huh7.5, 72 h.
For `CCOC(=O)c1c(NC(=O)NCc2c(C(F)(F)F)sc3c2CCNC3)sc2c1C(C)CCC2` (centres unmarked) [Compound 190], the EC50 is < 100 nM. Still for that read-out and setting: then `CC(C)(C)OC(=O)c1c(NC(=O)NCc2c(-c3ccnc(F)c3)sc3c2CCNC3)sc2c1CCCC2` [Compound 310], with < 100 nM; and `CCOC(=O)c1cc2ccccc2cc1NC(=O)NCc1c(-n2cccc2)sc2c1CCN(CC)C2` [Compound 45], with 1000 to 10000 nM; and `CCOC(=O)c1c(NC(=O)NCc2c(-n3cccc3)sc3c2CCN(Cc2ccccc2)C3)sc(C)c1C` [Compound 28], with < 100 nM.

Regarding `CCOC(=O)c1c(NC(=O)NCc2c(-n3cccc3)sc3c2CCN(CC)C3)sc(C(C)=O)c1C` [Compound 39], the EC50 is < 100 nM. Regarding `CC(C)(C)OC(=O)c1c(NC(=O)NCc2c(C(F)(F)F)sc3c2CCNC3)sc2c1CCC2` [Compound 244], the concentration giving a half-maximal response (EC50) was < 100 nM.

Turning to `O=C(NCc1c(Br)sc2c1CCNC2)Nc1sc2c(c1C(=O)OC1CCCCC1)CCCC2` [Compound 271], the 50% effective concentration (EC50) is < 100 nM.

Consider `CCN1CCc2c(sc(-n3cccc3)c2CNC(=O)Nc2sc3c(c2-c2nnc(C)o2)CCCC3)C1` [Compound 43], for which the EC50 is < 100 nM. Molecule `CCOC(=O)c1c(NC(=O)NCc2c(-n3cccc3)sc3c2CCN(CC)C3)sc2c1CCNC2` [Compound 46] displayed an EC50 of 100 to 1000 nM. Same read-out and setting: then `CCOC(=O)c1c(NC(=O)c2c(-n3cccc3)sc3c2CCN(CC)C3)sc2c1CCCC2` [Compound 23], with 1000 to 10000 nM; and `CC(C)N1CCc2c(sc(-n3cccc3)c2CNC(=O)Nc2sc3c(c2C(=O)OC(C)(C)C)CCCC3)C1` [Compound 98], with < 100 nM. `COc1sc2c(c1CNC(=O)Nc1sc3c(c1C(=O)OC(C)(C)C)CCCC3)CCNC2` [Compound 126]: the EC50 was < 100 nM. On the same count and under the same terms, then `O=C(NCc1c(Br)sc2c1CCNC2)Nc1sc2c(c1C(=O)OC1CCCC1)CCCC2` [Compound 262], with < 100 nM; and `Cc1sc(NC(=O)NCc2c(-n3cccc3)sc3c2CCN(C)C3)c(C(=O)OC(C)C)c1C` [Compound 196], with < 100 nM. Same read-out and setting: then `CC(C)(C)OC(=O)c1c(NC(=O)NCc2c(-n3cccc3)sc3c2CCNC3)sc2c1CCOC2` [Compound 319], with < 100 nM; and `CN1CCc2c(sc(C(F)(F)F)c2CNC(=O)Nc2sc3c(c2C(=O)OC(C)(C)C)CCCCC3)C1` [Compound 281], with < 100 nM; and `CCN1CCc2c(sc(-n3cccc3)c2CNC(=O)Nc2sc3c(c2C(=O)O)CCCC3)C1` [Compound 16], with > 10000 nM. Turning to `CN1CCc2c(sc(Br)c2CNC(=O)Nc2sc3c(c2C(=O)OC(C)(C)C)CCCC3)C1` [Compound 185], the EC50 was < 100 nM. In turn, `CCOC(=O)c1c(NC(=O)NCc2c(-n3cccc3)sc(C(=O)OC(C)(C)C)c2C)sc2c1CCCC2` [Compound 50] returned an EC50 of 1000 to 10000 nM. Still for that read-out and setting: then `CCOC(=O)c1c(NC(=O)NCc2c(C(F)(F)F)sc3c2CCNC3)sc2c1CC(C)CC2C` (centres unmarked) [Compound 208], with < 100 nM; and `Cc1nnc(-c2c(NC(=O)NCc3c(Br)sc4c3CCNC4)sc(C)c2C)o1` [Compound 162], with < 100 nM; and `CCOC(=O)c1c(N/C(=N/C#N)NCc2c(-n3cccc3)sc3c2CCN(CC)C3)sc2c1CCCC2` [Compound 77], with > 10000 nM. On the same count and under the same terms, then `CC(C)(C)OC(=O)c1c(NC(=O)NCc2c(Br)sc3c2CC[N+](C)(C)C3)sc2c1CCCCC2` [Compound 255], with < 100 nM; and `CCN1CCc2c(sc(-n3cccc3)c2CNC(=O)Nc2sc(C)c(C)c2C(=O)OC(C)C)C1` [Compound 195], with < 100 nM. With `CN1CCc2c(sc(-n3cccc3)c2CNC(=O)Nc2sc3c(c2C(=O)OC(C)(C)C)CCCCC3)C1` [Compound 301], the EC50 is < 100 nM. The same measure, in the same setting: then `CCN1CCc2c(sc(Br)c2CNC(=O)Nc2sc(C)c(C)c2C(=O)OC(C)C)C1` [Compound 264], with < 100 nM.

As to `CC(C)(C)OC(=O)c1c(NC(=O)NCc2c(-c3ccc(F)nc3)sc3c2CCNC3)sc2c1CCCC2` [Compound 309], the EC50 was < 100 nM. As for `CC(C)(C)OC(=O)c1c(NC(=O)NCc2c(-n3cccc3)sc3c2CCN(C(C)(C)C)C3)sc2c1CCCC2` [Compound 99], the EC50 is < 100 nM. Still for that read-out and setting: then `COC(=O)c1c(NC(=O)NCc2c(Br)sc3c2CC[N+](C)(C)C3)sc2c1CCCC2` [Compound 176], with < 100 nM; and `CCc1sc2c(c1CNC(=O)Nc1sc(C)c(C)c1C(=O)OC(C)(C)C)CCNC2` [Compound 288], with < 100 nM; and `CCN1CCc2c(sc(Br)c2CNC(=O)Nc2sc3c(c2C(=O)OC)CCCC3)C1` [Compound 177], with < 100 nM.

As for `CCOC(=O)c1c(NC(=O)NCc2c(-n3cccc3)sc3c2CCN(C(C)=O)C3)sc2c1CCCC2` [Compound 20], the EC50 is < 100 nM. On the same count and under the same terms, then `Cc1sc(NC(=O)NCc2c(-c3cccc(F)c3)sc3c2CCNC3)c(C(=O)OC(C)C)c1C` [Compound 251], with < 100 nM.

`O=C(NCc1c(-n2cccc2)sc2c1CCNC2)Nc1sc2c(c1C(=O)NCC1CCCCC1)CCCC2` [Compound 83] yielded an EC50 of 1000 to 10000 nM. Still for that read-out and setting: then `CN1CCc2c(sc(-n3cccc3)c2CNC(=O)Nc2sc3c(c2C(=O)OC2CCCC2)CCCC3)C1` [Compound 221], with < 100 nM; and `CCN1CCc2c(sc(-n3cccc3)c2CNC(=O)Nc2sc3c(c2-c2c[nH]cn2)CCCC3)C1` [Compound 95], with > 10000 nM.
